{"source": "ChEMBL document CHEMBL1158070", "about": "“Gymnastatins F-H, cytostatic metabolites from the sponge-derived fungus Gymnascella dankaliensis” (2006)", "system": "P388", "assay": "Cytotoxicity against mouse P388 cells", "type": "functional", "settings": "read-out: ED50 (the source's name)", "data": [{"compound": "CCCCCC[C@@H](C)/C=C(C)/C=C/C(=O)N[C@@H](Cc1ccc(O)cc1)C(=O)OC", "note": "[GYMNASTATIN H]", "values": [{"measurement": "EC50", "value": "> 10", "unit": "µg/mL"}]}, {"compound": "CCCCCC[C@@H](C)/C=C(C)/C=C/C(N)=O", "note": "[GYMNAMIDE]", "values": [{"measurement": "EC50", "value": "> 10", "unit": "µg/mL"}]}, {"compound": "O=c1[nH]cc(F)c(=O)[nH]1", "note": "[FLUOROURACIL]", "values": [{"measurement": "EC50", "value": 0.073, "unit": "µg/mL"}]}, {"compound": "CCCCCC[C@@H](C)/C=C(C)/C=C/C(=O)N[C@H]1C[C@]2(O)C=C(Cl)C(=O)[C@@](Cl)([C@H]2OC)[C@H]1O", "note": "[GYMNASTATIN F]", "values": [{"measurement": "EC50", "value": 0.13, "unit": "µg/mL"}]}, {"compound": "CCCCCC[C@@H](C)/C=C(C)/C=C/C(=O)N[C@H]1C[C@]2(O)[C@H]3O[C@H]3C(=O)[C@](Cl)([C@H]1O)[C@H]2OC", "note": "[GYMNASTATIN G]", "values": [{"measurement": "EC50", "value": 0.03, "unit": "µg/mL"}]}]}
